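Each compound was tested at five concentrations against cells in 96-well plates for 48 hours. GI50 is the concentration that inhibits growth by half. Definition used: TGI = concentration required for complete inhibition of growth.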
What was measured:
Test in all cases: NCI anticancer screen, dose series, 48 h
[1] = test system: RPMI-8226 leukemia
[2] = test system: SK-OV-3 ovarian
[3] = test system: NCI-H460 lung
[4] = test system: A549 NSCLC
[5] = test system: OVCAR-3 ovarian
[6] = test system: LOX IMVI melanoma
[7] = test system: HOP-92 NSCLC
[8] = test system: EKVX NSCLC
[9] = test system: SNB-19 CNS
[10] = test system: HCT-15 colon

| Compound | GI50 [1] [µM] | TGI [1] [µM] | GI50 [2] [µM] | TGI [2] [µM] | GI50 [3] [µM] | TGI [3] [µM] | GI50 [4] [µM] | TGI [4] [µM] | GI50 [5] [µM] | TGI [5] [µM] | GI50 [6] [µM] | TGI [6] [µM] | GI50 [7] [µM] | TGI [7] [µM] | GI50 [8] [µM] | TGI [8] [µM] | GI50 [9] [µM] | TGI [9] [µM] | GI50 [10] [µM] | TGI [10] [µM] |
| --- | --- | --- | --- | --- | --- | --- | --- | --- | --- | --- | --- | --- | --- | --- | --- | --- | --- | --- | --- | --- |
| C#CCSc1nnnn1-c1ccc(Br)c(C)c1 | 22.5 | 74 | 30 | > 100 | 31.5 | > 100 | 38 | > 100 | 23.2 | 95.8 | 20.9 | > 100 | 14.5 | 74.5 | 4.86 | 97.3 | 74 | > 100 | 29 | > 100 |
| COC(=O)CC(CC(=O)C(=O)OC)C(=O)OC (stereo not given) |  | > 100 |  | > 100 |  | > 100 |  | > 100 |  | > 100 |  | > 100 |  | > 100 |  | > 100 |  | > 100 |  | > 100 |
| Oc1ccc(-c2nc(-c3ccc(F)cc3)c(-c3ccncc3)[nH]2)cc1 | 11.7 | 38.2 | 5.21 | 80.3 | 18.8 | 59.7 | 25.8 | > 100 | 15 | 86.9 | 28.6 | > 100 | 17.2 | > 100 | 13.6 | > 100 | 35.3 | > 100 | 13.2 | > 100 |
| CC1(C)OCC(C2OC(On3nnc4ccc(Cl)cc43)C3OC(C)(C)OC23)O1 (stereo not given) |  | > 100 |  | > 100 |  | > 100 |  | > 100 |  | > 100 |  | > 100 |  | > 100 |  | > 100 |  | > 100 |  | > 100 |
| Cc1cc(N(CCC#N)CCC#N)ccc1N=Nc1ccc([N+](=O)[O-])cc1 |  | > 100 |  | > 10 |  | > 100 |  | > 100 |  | > 100 |  | 80.6 |  | > 100 |  | > 100 |  | 57.3 |  | > 100 |
| CC(=O)NNc1nc(C)c(C(/C=C/c2ccc3c(c2)OCO3)=N/NC(=O)c2ccncc2)s1 |  | > 100 |  | > 100 |  | > 100 |  | > 100 |  | > 100 |  | > 100 |  | > 100 |  | > 100 |  | > 100 |  | > 100 |
| Nc1ncn([C@@H]2C=C(CO)C(O)C2O)c(=O)n1 (stereo not given in full) |  | > 100 |  | > 100 |  | > 100 |  | > 100 |  | > 100 |  | > 100 |  | > 100 |  | > 100 |  | > 100 |  | > 100 |
| C/C=C(\C)C(=O)O[C@@H]1C=CC(=O)O[C@H]1COC(=O)[C@H](C)O | 18.8 | 44.2 | 25.2 | 88.6 | 12.7 | 28.6 | 18.7 | 51.9 | 14 | 27.6 | 9.64 | 22.2 | 7.83 | 21.9 | 19 | 42.1 | 19.8 | 56 | 5.68 | 19.5 |
| Cc1ccc(C)c(NC(=O)CCC(=O)CC(=O)C(C)(C)C)c1 |  | > 100 |  | > 100 |  | > 100 |  | > 100 |  | > 100 |  | > 100 |  | > 100 |  | > 100 |  | > 100 |  | > 100 |
| C[C@@H](Oc1cc(-n2cnc3ccc(OCC4CCN(C)CC4)cc32)sc1C(N)=O)c1ccccc1C(F)(F)F | 0.133 | 5.89 | 0.143 | 2.25 | 0.0872 | 3.1 | 0.131 | 2.7 | 0.0801 | 2.86 | 0.106 | 3.27 | 0.307 | 3.43 | 0.653 | 5.04 | 0.163 | 4.56 | 0.126 | 3.2 |
| COc1cc2c(cc1OCCCN1CCN(CCCOc3cc4c(cc3OC)C(=O)C3CCC[C@H]3C=N4)CC1)N=C[C@@H]1CCCC1C2=O (stereo not given in full) | 0.24 | 3.81 | 63.5 | > 100 | 4.45 | > 69.9 | 35.8 | > 100 | 8.17 | 60.6 | 3.65 | > 60.7 | 0.597 | > 61.4 | 34.2 | > 100 | 23.7 | > 100 | 53.9 | > 100 |
| Nc1nccc(C#Cc2cncnc2Nc2ccc(OCc3cccc(F)c3)c(Cl)c2)n1 | 5.62 | 16.9 | 7.22 | > 22.5 | 5.13 | 10.3 | 5.99 | > 15.6 | 3.83 | 7.18 | 1.72 | 6.01 | 3.73 | 8.95 | 4.51 | 9.85 | 4.79 | 10 | 3.69 | 11.4 |

Reference: PubChem BioAssay (NCI)
